Data on 5 molecules can be found in ChEMBL document CHEMBL3244112, “Dipeptides of O-methyl-L-threonine as potential antimalarials” (J Med Chem, 1979).

Data set [1] concerns Plasmodium berghei. As to the kind of experiment: Antimalarial activity against Plasmodium berghei infected in mouse assessed as increase of survival time of host at 160 to 640 mg/kg. Type of data set: functional, organism-based.
The test system of data set [2] is Plasmodium berghei. As to the kind of experiment: Antimalarial activity against Plasmodium berghei infected in mouse assessed as increase of survival time of host at 640 mg/kg. Type of data set: functional, organism-based. Set-up: dose 640 mg/kg.
A further data set deals with Mus musculus. The data set is described as follows: Toxicity in Plasmodium berghei infected mouse at <640 mg/kg. The class given is organism-based. The note with it: in vivo.
Data set [3] has as its system Plasmodium berghei. The data set is described as follows: Antimalarial activity against Plasmodium berghei infected in mouse assessed as increase of survival time of host. Type of data set: functional, organism-based.

Activity calls are given as the source filed them. The rule behind the calls is not given here. Peptide text beside a SMILES is read from it.

Regarding `CO[C@H](C)[C@H](N)C(=O)O`, the result with Plasmodium berghei [1] was Active. For the molecule `CO[C@H](C)[C@H](NC(=O)[C@@H](N)CC(C)C)C(=O)O` (H-Leu-Thr(Me)-OH), the outcome with Plasmodium berghei [2] was inactive. Besides, in the data set with Mus musculus, the Activity result is “Non-toxic”. On the same counts, the results for `CO[C@H](C)[C@H](N)C(=O)N[C@@H](CC(C)C)C(=O)O` (H-Thr(Me)-Leu-OH) are “inactive” and “Non-toxic”. With `CO[C@H](C)[C@H](N)C(=O)N[C@H](C(=O)O)[C@@H](C)OC` (H-Thr(Me)-Thr(Me)-OH), the result with Plasmodium berghei [2] and in the data set with Plasmodium berghei [3] was Active. `CC(C)C[C@H](N)C(=O)O` [LEUCINE]: the outcome in the data set with Plasmodium berghei [2] was inactive. Besides, the Activity result in the data set on Mus musculus is given as “Non-toxic”.
